From article PMC7179450, “Primary Human Hepatocytes, But not HepG2 or Balb/c 3T3 Cells, Efficiently Metabolize Salinomycin and Are Resistant to Its Cytotoxicity” (Molecules, 2020)
Values joined by “and” are separate entries in the source; they are usually repeats but may differ in a detail not shown here. Equal entries are not always repeated.

Assays:
[1] = Cytotoxicity battery in human hepatoma cells; type: cell-based; settings: HepG2 human hepatoma cells, after 24 h, read-out: cytotoxic concentrations
Method: The concentration ranges of the drugs were chosen according to their solubility and their plasma level. Each drug was dissolved in DMSO. The final concentration of DMSO was 0.1% or 0.2% in the medium for both samples and corresponding controls. […] All drug solutions in medium were freshly prepared and protected from light. SAL was tested in seven concentrations from 0.39 to 25 µg/mL. Tiamulin was added in two concentrations (1 and 10 µg/mL) or just one concentration (1 µg/mL) to cell lines or human hepatocytes, respectively. Prednisolone was tested in one concentration—1 µg/mL independent of the type of cells. […] The cytotoxicity was assessed after 24 and 48 h of exposure of cell lines or after 12 and 24 h exposure of PHH. […]
The metabolic activity of living cells was assessed by measuring the activity of dehydrogenases. […] The plate was shaken for 15 min at room temperature and transferred to a microplate reader to measure the absorbance at 570 nm, using a blank as a reference. Cytotoxicity was expressed as a percentage of the negative control (0.1% or 0.2% DMSO).
The assay, based on staining of living cells by neutral red (NR), was performed according to the protocol described by Borenfreund and Puerner. […] After 10 min of shaking, the absorbance of the dissolved NR was measured at 540 nm using a blank as a reference. […]

[2] = test system: humans; settings: accidental poisoning: nausea, photophobia, limb weakness, tachycardia, muscle pain, mild rhabdomyolysis with myoglobinuria; cited from earlier work
[3] = test system: hepatoma tumor; settings: mice, doses of 4 and 8 mg/kg b.w.; cited from earlier work

SMILES: CC[C@@H](C(=O)[C@@H](C)[C@@H](O)[C@H](C)[C@@H]1O[C@@H]([C@@H](CC)C(=O)O)CC[C@@H]1C)[C@H]1O[C@]2(C=C[C@@H](O)[C@]3(CC[C@@](C)([C@H]4CC[C@](O)(CC)[C@H](C)O4)O3)O2)[C@H](C)C[C@@H]1C [SAL, salinomycin]
- EC50 at 24 h [1]: 800 nM to 20.5 µM and 0.6 µg/mL to 15.4 µg/mL
- toxicity in a human [2]: severe toxicity
- effect on hepatoma tumor [3]: significantly reducing the hepatoma tumor
